Reference: the NIST ThermoML archive (doi:10.1016/j.fluid.2017.09.008)
± gives the expanded uncertainty stated by the source.

Experiment: excess molar enthalpy (molar enthalpy of mixing); xn = mol fraction of the nth substance listed
Conditions: 298.15 K, 101 kPa, Liquid, DSC [Setaram C80]

COc1ccccc1O [2-methoxyphenol] + CCO
excess molar enthalpy (x1 = 0.0168): -0.03 ± 0.022 kJ/mol | excess molar enthalpy (x1 = 0.1988): -0.379 ± 0.017 kJ/mol | excess molar enthalpy (x1 = 0.3994): -0.549 ± 0.011 kJ/mol | excess molar enthalpy (x1 = 0.608): -0.505 ± 0.013 kJ/mol | excess molar enthalpy (x1 = 0.7783): -0.238 ± 0.019 kJ/mol

Cc1cccc(O)c1 [3-methylphenol] + CCO
excess molar enthalpy (x1 = 0.2003): -0.792 ± 0.024 kJ/mol | excess molar enthalpy (x1 = 0.4097): -1.23 ± 0.017 kJ/mol | excess molar enthalpy (x1 = 0.5861): -1.15 ± 0.02 kJ/mol | excess molar enthalpy (x1 = 0.7875): -0.687 ± 0.025 kJ/mol

Cc1ccccc1O [2-methylphenol] + CCO
excess molar enthalpy (x1 = 0.1954): -1.11 ± 0.039 kJ/mol | excess molar enthalpy (x1 = 0.4127): -1.62 ± 0.035 kJ/mol | excess molar enthalpy (x1 = 0.6007): -1.65 ± 0.037 kJ/mol | excess molar enthalpy (x1 = 0.8013): -0.944 ± 0.047 kJ/mol
